Reference: article PMC9570211, “Analysis of 1-Aroyl-3-[3-chloro-2-methylphenyl] Thiourea Hybrids as Potent Urease Inhibitors: Synthesis, Biochemical Evaluation and Computational Approach” (International Journal of Molecular Sciences, 2022)
Where two headings read alike, the source gives them in different places.

Key:
[1] = target: T1, jack bean urease (JBU) (Canavalia ensiformis, UniProt P07374); assay: biochemical
Method: Hydrophobic and hydrophilic groups were substituted on a phenyl ring in the novel analogues 4a–j that were synthesized in order to check urease inhibition activity.
The function of nitro, chloro, methyl and ethyl substitution in urease inhibitory activity was evaluated. Thiourea, a well-known urease inhibitor, served as the reference compound.
The methodology used in this research for in vitro urease inhibitory activity is the same as reported in our earlier paper.

[2] = DPPH free radical scavenging assay; details: in comparison of standard Vitamin C; up to 100 µg/mL
Method: All of the produced 1-aroyl-3-[3-chloro-2-methylphenyl]thiourea compounds were assessed for the ability of DPPH free radical scavenging activity as depicted in Figure 2.
The assay performed in our studies had the same methodology as reported in our previous research articles.

[3] = target: T1, jack bean urease (JBU); assay: Kinetic analysis of urease inhibition (Lineweaver–Burk); type: biochemical
Source text: Kinetic investigations provided additional evidence for the inhibitory function, in which the potential of the potent derivative 4i to inhibit the substrate at different concentrations in such a way that enzyme concentration remained constant. The kinetic tests of the enzyme gave a series of straight lines by the Lineweaver–Burk plot of 1/V versus 1/[S] in the presence of varying compound concentrations (Figure 3A).
Kinetics performed here as stated previously in our research articles was used for urease activity determination.
Figure 3 Compound 4i inhibiting urease in a Lineweaver–Burk plot (A) Concentrations of 4i were 0.00, 0.001, 0.002 and 0.004 µM (Blue, green, red and black colored lines). […] The lines were constructed using least squares linear regression mean ± SEM.

T1 sequence (P07374 whole entry, looked up): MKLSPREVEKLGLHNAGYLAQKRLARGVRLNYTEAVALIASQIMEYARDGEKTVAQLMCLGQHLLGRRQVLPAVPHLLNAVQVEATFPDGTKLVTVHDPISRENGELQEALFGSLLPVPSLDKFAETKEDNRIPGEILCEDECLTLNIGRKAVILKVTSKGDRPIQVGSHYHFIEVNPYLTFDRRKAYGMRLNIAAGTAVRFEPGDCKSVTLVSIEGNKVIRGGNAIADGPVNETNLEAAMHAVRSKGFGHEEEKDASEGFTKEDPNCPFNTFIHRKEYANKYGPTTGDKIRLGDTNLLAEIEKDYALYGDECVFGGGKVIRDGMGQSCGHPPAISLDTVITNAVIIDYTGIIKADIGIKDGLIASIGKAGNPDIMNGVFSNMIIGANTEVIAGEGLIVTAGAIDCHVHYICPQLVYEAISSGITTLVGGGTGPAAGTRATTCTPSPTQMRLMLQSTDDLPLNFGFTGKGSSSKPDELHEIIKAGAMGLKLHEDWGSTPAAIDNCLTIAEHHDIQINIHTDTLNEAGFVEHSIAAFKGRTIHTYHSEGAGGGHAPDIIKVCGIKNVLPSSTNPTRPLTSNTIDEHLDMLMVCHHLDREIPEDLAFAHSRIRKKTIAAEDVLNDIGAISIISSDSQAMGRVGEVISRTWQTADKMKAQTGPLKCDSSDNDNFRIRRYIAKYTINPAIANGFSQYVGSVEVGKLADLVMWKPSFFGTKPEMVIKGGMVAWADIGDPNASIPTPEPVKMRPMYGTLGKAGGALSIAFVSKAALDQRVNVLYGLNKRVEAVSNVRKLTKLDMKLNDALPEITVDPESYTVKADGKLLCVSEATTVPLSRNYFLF

Compound | IC50 [1] [µM] | DPPH free radical scavenging activity [2] | also measured
Cc1c(Cl)cccc1NC(=S)NC(=O)c1ccccc1 [Compound 4a, N-[[3-chloro-2-methylphenyl]carbamothioyl]benzamide] | 0.0449 ± 0.0854 |  | 
COc1ccc(C(=O)NC(=S)Nc2cccc(Cl)c2C)cc1 [Compound 4b] | 0.0079 ± 0.0048 |  | 
Cc1ccc(C(=O)NC(=S)Nc2cccc(Cl)c2C)cc1 [Compound 4d] | 0.0532 ± 0.0995 | good activity | 
Cc1c(Cl)cccc1NC(=S)NC(=O)c1ccc([N+](=O)[O-])cc1 [Compound 4e] |  | good activity | 
Cc1c(Cl)cccc1NC(=S)NC(=O)c1cccc([N+](=O)[O-])c1 [Compound 4f] | 0.0136 | good activity | 
Cc1c(Cl)cccc1NC(=S)NC(=O)c1cc([N+](=O)[O-])cc([N+](=O)[O-])c1 [Compound 4g] | 0.0335 ± 0.0994 | good activity | 
Cc1c(Cl)cccc1NC(=S)NC(=O)c1ccc(Cl)cc1 [Compound 4h] | 0.0229 | good activity | 
Cc1c(Cl)cccc1NC(=S)NC(=O)c1ccccc1Cl [Compound 4i] | 0.0019 ± 0.0011 | good activity | Ki [3]: 0.0003 µM; Inhibition Type ([3]; Lineweaver–Burk plot): Non-Competitive; Vmax ([3]; concentration of 4i 0.001 (µM per Figure 3)): 0.000387 ΔA/Min; Vmax ([3]; concentration of 4i 0.002 (µM per Figure 3)): 0.000131 ΔA/Min; Vmax ([3]; concentration of 4i 0.004 (µM per Figure 3)): 8.495 × 10^−5 ΔA/Min
NC(N)=S [Thiourea] |  |  | IC50 ([1]; jack bean urease, mean ± SEM, read-out: Urease Activity IC50 ± SEM): 4.75 ± 0.0545 µM
